According to patent US5461044A, “Cephalosporin derivatives” (Meiji Seika Kaisha, Ltd., priority 1991, dated 1995):
Values after ≈ are worked out from the molar mass of the structure shown. Like-named read-outs stand apart in the source and are kept apart here.

Experiments:
[1] = tested on: Staphylococcus aureus M133; test: Minimum growth inhibition concentration, standard serial dilution method; format: cell-based; conditions: Staphylococcus aureus M133 (methicillin-resistant); 10^6 CFU/ml, 35° C., 18 to 20 hours
Description: (§1) In this Test Example, the antibacterial activity of some exemplary compounds indicated below and chosen from amongst the compounds of the general formula (I) according to this invention is illustrated by determining their minimum growth inhibition concentrations to various bacteria as measured by a standard serial dilution method. In this case, the determination was carried out by inoculating 10^6 CFU/ml of test bacteria to a culture medium N for sensitive disc (as prepared by Nissui Pharmaceutical Co., Ltd.), incubating the bacteria at 35° C. for 18 to 20 hours, and then evaluating the bacterial growth. Test compounds used are as follows:
(§2) The measured values of the minimum growth inhibition concentrations ([…]) of the above-mentioned compounds A, B and C are shown in Table 1.
(§3) Note: (*) means methicillinresistant Staphylococus aureus.

[2] = tested on: Staphylococcus aureus M126; test: as above; format: cell-based; conditions: Staphylococcus aureus M126 (methicillin-resistant); 10^6 CFU/ml, 35° C., 18 to 20 hours
Description: as §1, §2, §3

[3] = tested on: Staphylococcus epidermidis ATCC14990; test: as above; format: cell-based; conditions: 10^6 CFU/ml, 35° C., 18 to 20 hours
Description: as §1, §2

Proteus vulgaris GN76 = test: as above; format: cell-based
Description: as §1, §2

[4] = tested on: Klebsiella pneumoniae PCI602; test: as above; format: cell-based
Description: as §1, §2

[5] = tested on: Marganella morganii 1510/S-1; test: as above; format: cell-based; conditions: read-out: Minimum growth inhibition concentration
Description: as §1, §2

[6] = tested on: Staphylococcus aureus 209P JC-1; test: as above; format: cell-based; conditions: read-out: Minimum growth inhibition concentration
Description: as §1, §2

[7] = tested on: Escherichia coli NIHJ JC-2; test: as above; format: cell-based
Description: as §1, §2

[8] = Concentration in blood upon subcutaneous injection in mice (HPLC, serum); format: in vivo, mice of ICR strain; conditions: sc, male ICR mice, 0.5 mg per mouse; for half-life / AUC: Gauss-Newton method; for AUC: read-out: AUC (Area under the plasma concentration-time curve); for Cmax: HPLC, read-out: Maximum concentration in blood
Description: Test compounds used are as follows:
The test procedure used was as follows. That is, 5 mice of ICR strain (male, 4-weeks-aged, 1 mouse in each group/at the time of collection of blood samples) were used as test animal and 0.5 mg of each test compound dissolved in 0.2 ml of a purified water sterilized for injection was subcutaneously injected to each mouse. Blood samples were collected from each mouse 5 minutes, 15 minutes, 30 minutes, 1 hour and 2 hours after the aministration of test compound. Each blood sample as collected was post-treated in a usual manner and the concentration of the cephem compound in the serum was then quantitatively determined by the use of HPLC (High Performance Liquid Chromatography). A half-life value and AUC which were pharmacokinetic parameters were calculated by the Gauss-Newton method.
AUC means "Area under the plasma concentration-time curve".

[9] = Toxicity (LD50) on intravenous administration in mice; conditions: mouse, in vivo
Description: The cephalosporin derivative of the general formula (I) according to this invention can safely be administered to mammals because it is of low toxicity. […] The new cephalosporin derivative of this invention may be administered orally at a unit dose of 100 mg to 250 mg to an adult human patient four times a day, for a guideline. However, precise dosage of the new cephalosporin derivative of this invention is determinable through preliminary routine experiments, depending on the body weight, ages, sex and other various parameters of patients as well as the nature of the bacterial infections to be treated, and so on.

[10] = Proteus vulgaris GN76, 10^6 CFU/ml, 35° C., 18 to 20 hours, read-out: Minimum growth inhibition concentration
[11] = Klebsiella pneumoniae, PCI602, read-out: Minimum growth inhibition concentration
[12] = Escherichia coli, NIHJJC2, read-out: Minimum growth inhibition concentration

SMILES	MIC [1] [µg/mL]	MIC [2] [µg/mL]	MIC [3] [µg/mL]	MIC (Proteus vulgaris GN76; [10]) [µg/mL]	MIC [4, 11] [µg/mL]	MIC [5] [µg/mL]	MIC [6] [µg/mL]	MIC [7, 12] [µg/mL]	half-life [8] [min]	AUC [8] [ng·h/mL]	Cmax [8] [µg/mL]	MIC ([4]; Klebsiella pneumoniae PCI602, 10^6 CFU/ml, 35° C., 18 to 20 hours, read-out: Minimum growth inhibition concentration) [µg/mL]	MIC ([7]; NIHJJC2, Escherichia coli NIHJ JC-2, 10^6 CFU/ml, 35° C., 18 to 20 hours, read-out: Minimum growth inhibition concentration) [µg/mL]	MIC (Proteus vulgaris GN76; Proteus vulgaris, GN76, read-out: Minimum growth inhibition concentration) [µg/mL]	LD50 [9] [mg/kg]
Nc1nc(/C(=N/OCC(=O)O)C(=O)NC2C(=O)N3C(C(=O)O)=C(Sc4nc5ccccc5s4)CSC23)cs1 (stereo not shown) [Compound C, 7-[(Z)-2-(2-aminothiazol-4-yl)-2carboxymethoxyiminoacetamido]-3-(benzothiazol-2-yl)thio3-cephem-4-carboxylic acid]	12.5 (≈ 21.1 µM)	50 (≈ 84.4 µM)	1.56 (≈ 2.63 µM)	0.1 (≈ 0.169 µM)	3.13 (≈ 5.28 µM)	0.78 (≈ 1.32 µM)	3.13 (≈ 5.28 µM)	3.13 (≈ 5.28 µM)	55.2	131000	80.8	–	–	–	–
Nc1nc(/C(=N/O)C(=O)NC2C(=O)N3C(C(=O)O)=C(Sc4nc5ccccc5s4)CS[C@H]23)cs1 (stereo partly shown) [B, 7-[(Z)-2-(2-aminothiazol-4-yl)-2hydroxyiminoacetamido]-3-(benzothiazol-2-yl)thio-3-cephem-4-carboxylic acid]	1.56 (≈ 2.92 µM)	3.13 (≈ 5.85 µM)	0.2 (≈ 0.374 µM)	100 (≈ 187 µM)	–	3.13 (≈ 5.85 µM)	0.2 (≈ 0.374 µM)	–	–	–	–	25 (≈ 46.8 µM)	25 (≈ 46.8 µM)	–	–
CO/N=C(\C(=O)NC1C(=O)N2C(C(=O)O)=C(Sc3nc4ccccc4s3)CS[C@H]12)c1csc(N)n1 (stereo partly shown) [Compound A, 7-[(Z)-2-(2-aminothiazol-4-yl)-2methoxyiminoacetamido]-3-(benzothiazol-2-yl)thio-3-cephem-4-carboxylic acid]	3.13 (≈ 5.7 µM)	6.25 (≈ 11.4 µM)	0.2 (≈ 0.365 µM)	–	3.13 (≈ 5.7 µM)	0.78 (≈ 1.42 µM)	0.39 (≈ 0.711 µM)	3.13 (≈ 5.7 µM)	42	62500	51.6	–	–	3.13 (≈ 5.7 µM)	1000 to 1500
